Consider eight molecules from PubChem BioAssay (NCI).

Some test systems named below: HCT-15 colon; CCRF-CEM leukemia; OVCAR-8 ovarian; UO-31 renal; SK-MEL-2 melanoma; A498 renal; SNB-75 CNS; HT29 colon; SK-MEL-28 melanoma; NCI/ADR-RES ovarian; M14 melanoma; IGROV1 ovarian; SK-OV-3 ovarian; SF-539 CNS; SW-620 colon; NCI-H460 lung; NCI-H522 lung; KM12 colon; OVCAR-3 ovarian.
Common to all, as to assay: NCI anticancer screen, dose series, 48 h

SMILES strings stand for the structures.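 Values below derive from 48-hour exposures of cells grown in 96-well plates, with endpoints linearly interpolated between the two concentrations bracketing the appropriate inhibition level. At the TGI there is no net growth.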

Take `CC(=O)O[C@@]12CO[C@@H]1C[C@@H](O)[C@@]1(C)C(=O)[C@H](O)C3=C(C)[C@@H](OC(=O)[C@H](O)[C@@H](NC(=O)c4ccccc4)c4ccccc4)C[C@@](O)([C@@H](OC(=O)c4ccccc4)C12)C3(C)C` (some centres undefined): the TGI was greater than 100 µM in the test with HCT-15 colon; greater than 67.5 µM in the test with CCRF-CEM leukemia; greater than 100 µM in the test on OVCAR-8 ovarian; greater than 78.8 µM in the test on UO-31 renal; 0.887 µM with SK-MEL-2 melanoma; greater than 100 µM in the test with A498 renal. For the same molecule, the TGI in the test with SNB-75 CNS is 0.0815 µM; in the test on HT29 colon, 0.124 µM; in the test with SK-MEL-28 melanoma it was greater than 100 µM; in the test on NCI/ADR-RES ovarian, 74.4 µM; with M14 melanoma, greater than 100 µM; in the test with IGROV1 ovarian, greater than 100 µM. Also, the TGI is greater than 100 µM in the test on SK-OV-3 ovarian, 0.0579 µM with SF-539 CNS, greater than 100 µM in the test on SW-620 colon and 25.1 µM in the test with NCI-H460 lung.
Consider `N=CN=CC(=S)O[C@@H]1C(=O)N2CCC[C@@]23CCCC[C@@H]13`, for which the TGI in the test on HCT-15 colon, in the test with CCRF-CEM leukemia, in the test on OVCAR-8 ovarian, in the test with UO-31 renal, with SK-MEL-2 melanoma and in the test on A498 renal was greater than 12.5 µM in each case. Besides, the TGI in the test with SNB-75 CNS, in the test on HT29 colon, with NCI-H522 lung, in the test on SK-MEL-28 melanoma, with NCI/ADR-RES ovarian and in the test with M14 melanoma was greater than 12.5 µM throughout. Also, the TGI in the test with IGROV1 ovarian, in the test with KM12 colon, with SK-OV-3 ovarian and in the test on NCI-H460 lung was greater than 12.5 µM in each case.
With `O=C(NC(Cc1cnc[nH]1)C(=O)N1CCCC1)C1CCCC1` (centres undefined), the TGI in the test with HCT-15 colon, in the test on OVCAR-3 ovarian, with CCRF-CEM leukemia, in the test on OVCAR-8 ovarian, in the test with UO-31 renal and in the test with A498 renal was greater than 100 µM in each case. For the same molecule, the TGI with SNB-75 CNS, in the test on HT29 colon, in the test on NCI-H522 lung, in the test on SK-MEL-28 melanoma, in the test on NCI/ADR-RES ovarian and with M14 melanoma was greater than 100 µM throughout. Besides, the TGI in the test on IGROV1 ovarian, with KM12 colon, in the test with SK-OV-3 ovarian, in the test on SW-620 colon and in the test on NCI-H460 lung was greater than 100 µM each time.
As to `CCNC12CCC(C1)C(C)(C)C2=O` (centres undefined), the TGI in the test with HCT-15 colon, with OVCAR-3 ovarian, in the test with CCRF-CEM leukemia, in the test with OVCAR-8 ovarian, with UO-31 renal and in the test with SK-MEL-2 melanoma was greater than 100 µM in each case. Also, the TGI with A498 renal, with SNB-75 CNS, in the test with SK-MEL-28 melanoma, in the test on NCI/ADR-RES ovarian, with M14 melanoma and in the test with IGROV1 ovarian was greater than 100 µM each time. For the same molecule, the TGI in the test on KM12 colon, in the test with SK-OV-3 ovarian, in the test with SW-620 colon and in the test on NCI-H460 lung was greater than 100 µM each time.
For the molecule `COc1ccc(C2=C(N)c3ncccc3C2=O)cc1`, the TGI with HCT-15 colon, in the test with OVCAR-3 ovarian, in the test with CCRF-CEM leukemia, in the test with OVCAR-8 ovarian, in the test on UO-31 renal and in the test on SK-MEL-2 melanoma was greater than 100 µM each time. In addition, the TGI in the test with A498 renal, with SNB-75 CNS, in the test with HT29 colon, in the test on SK-MEL-28 melanoma, in the test with NCI/ADR-RES ovarian and in the test on M14 melanoma was greater than 100 µM each time. Also, the TGI in the test with IGROV1 ovarian, in the test with KM12 colon, in the test with SK-OV-3 ovarian, in the test with SF-539 CNS, in the test on SW-620 colon and with NCI-H460 lung was greater than 100 µM throughout.
Take `C#Cc1cc(Br)c(OC(=O)C(C)(C)C)c(-c2cc(C#C)cc(Br)c2OC(=O)C(C)(C)C)c1`: the TGI in the test on HCT-15 colon is greater than 100 µM; in the test on OVCAR-3 ovarian, greater than 100 µM; with CCRF-CEM leukemia, 36.1 µM; in the test on OVCAR-8 ovarian, greater than 100 µM; with SK-MEL-2 melanoma, greater than 100 µM; in the test on A498 renal, greater than 100 µM. Besides, the TGI in the test on HT29 colon, in the test on NCI-H522 lung, with SK-MEL-28 melanoma, with NCI/ADR-RES ovarian, with M14 melanoma and with IGROV1 ovarian was greater than 100 µM in each case. For the same molecule, the TGI with KM12 colon, in the test on SK-OV-3 ovarian, in the test with SF-539 CNS, in the test with SW-620 colon and in the test with NCI-H460 lung was greater than 100 µM in each case.
In the case of `ONC1=Nc2ccccc2C(=S)N2CSCC12` (centres undefined), the TGI with HCT-15 colon, in the test with OVCAR-3 ovarian, in the test with CCRF-CEM leukemia, with OVCAR-8 ovarian, in the test on UO-31 renal and in the test with SK-MEL-2 melanoma was greater than 100 µM throughout. Moreover, the TGI with A498 renal, with SNB-75 CNS, in the test on HT29 colon, with NCI-H522 lung, in the test on SK-MEL-28 melanoma and in the test with NCI/ADR-RES ovarian was greater than 100 µM each time. Moreover, the TGI in the test on M14 melanoma is greater than 100 µM; in the test on IGROV1 ovarian, greater than 100 µM; in the test on KM12 colon, greater than 100 µM; in the test on SK-OV-3 ovarian, greater than 100 µM; with SW-620 colon, greater than 100 µM; with NCI-H460 lung it was 42.3 µM.
As for `O=C(NNC(=S)NCc1ccccc1)c1csc(NC(=S)NC2CCCCC2)n1`, the TGI with HCT-15 colon is greater than 100 µM; in the test on OVCAR-3 ovarian, greater than 100 µM; with CCRF-CEM leukemia it was greater than 100 µM; with OVCAR-8 ovarian, greater than 100 µM; in the test on UO-31 renal it was 58.2 µM; with SK-MEL-2 melanoma, 65.7 µM. For the same molecule, the TGI with A498 renal is greater than 100 µM; in the test with HT29 colon, 12.1 µM; in the test with NCI-H522 lung, greater than 100 µM; in the test with NCI/ADR-RES ovarian it was 96.4 µM; with M14 melanoma it was greater than 100 µM; in the test on IGROV1 ovarian, greater than 100 µM. Besides, the TGI in the test on KM12 colon, in the test on SK-OV-3 ovarian, with SF-539 CNS and in the test with SW-620 colon was greater than 100 µM throughout.
